Results: patent US20070003636A1, “Statins (HMG-COA reductase inhibitors) as a novel type of immunomodulator, immunosuppressor and anti-inflammatory agent” (priority 2003, published 2007)

Assays:
CD40 = assay: IFN-γ induced CD40 expression on vascular endothelial cells (Western blot); assay type: cell-based, human; conditions: ECs; for CD40 expression with co-treatment by IFN-γ and statin: IFN-γ 500 U/ml, 24 hrs, Western blotting
Source text: Cell isolation and culture. […] Human vascular smooth muscle (SMCs) cells were isolated from human saphenous veins and mammary arteries by explant outgrowth, and cultured in DMEM (BioWhittaker) supplemented with 1% L-glutamine (BioWhittaker), 1% penicillin/streptomycin, and 10% FCS. Both cell types were subcultured following trypsinization (0.5% trypsin (Worthington Biochemicals)/0.2% EDTA (EM Science)) in P100-culture dishes (Becton Dickinson).
Western blots analysis. Cells were harvested in ice-cold RIPA solubilization buffer, and total amounts of protein were determined using a bicinchoninic acid quantification assay (Pierce, Rockford, Ill.). Twenty μg of total protein/lane were separated by SDS/PAGE under reducing conditions and blotted to polyvinylidene difluoride membranes (Millipore Corp., Bedford, Mass.) using a semidry blotting apparatus (Bio-Rad, Hercules, Calif.). Blots were blocked overnight in 5% defatted dry milk/PBS/0.1% Tween, and then incubated for 1 hour at room temperature with primary antibody (1:40) (rabbit […] anti-CD40 Santa Cruz, San Diego, Calif.), or mouse monoclonal anti-human […] (1:5000) (Pharmingen) for control of loading. This was followed by a 1 hour incubation with secondary peroxidase-conjugated antibody (1:10,000), (Jackson Immunoresearch, West Grove, Pa.). […] Immunoreactivity was detected using the enhanced chemiluminescence detection method according to the manufacturer's instructions. (Amersham, Dübendorf Switzerland), and subsequent exposure of the membranes to x-ray film. Analysis of quantification of detection was performed using AIDA software.

MHC class II = conditions: ECs, IFN-γ 500 U/ml 48 hrs; compared among Atorvastatin, Lovastatin, Pravastatin
Experimental: Cell isolation and culture. […] Flow cytometry. […] Data were analyzed using […] software (Becton Dickinson).

CRP = conditions: cited from earlier work
CD40 mediated pathways = assay: CD40L induced cytokine release (IL-6, IL-8, MCP-1) from ECs, ELISA; assay type: cell-based, human; conditions: added to statin and CD154
Experimental: Cytokines assay. […] Experiments were performed in the presence of polymyxin B (1 μg/ml). Antibody binding was detected by adding substrate (R&D), and absorbance measured at 450 nm using a Dynatech plate reader. The amount of IL-6, IL-8 and MCP-1 detected was calculated from a standard curve prepared with the recombinant protein. Samples were assayed in duplicates.
To investigate the functional consequences of inhibition of CD40 expression by statins on Endothelial Cells activation by CD40L, secreted cytokines were analyzed such as Interleukin-6 (IL-6), interleukin-8 (IL-8), macrophages chemoattractant protein-1 (MCP-1). Addition of an anti-CD40LmAb blocked the induction of all three secreted cytokines in response to CD40 ligation.

**Q.** For `CC(C)c1c(C(=O)Nc2ccccc2)c(-c2ccccc2)c(-c2ccc(F)cc2)n1CC[C@@H](O)C[C@@H](O)CC(=O)O` [Atorvastatin], which “effect on IFN-γ induced CD40 in the presence of L-mevalonate” value (CD40) is on record?
**A.** markedly reduced

**Q.** And the “IFN-γ induction of CD40, dose dependence” value (CD40; IFN-γ 500 U/ml 24 hrs)?
**A.** repressed this induction of CD40 in a dose-dependant manner

**Q.** What about the “concentration range over which effect on CD40 was observed” value (CD40; IFN-γ 500 U/ml 24 hrs) of the same compound?
**A.** 0.08 to 5 µM

**Q.** And the “CD40 expression with co-treatment by IFN-γ and statin” value (CD40)?
**A.** decreased

**Q.** And the “CD40 expression, treatment with statin alone” value (CD40; without IFN-γ)?
**A.** had an effect on CD40 expression

**Q.** And the “potency as MHC class II repressor” value (MHC class II)?
**A.** most powerful MHC class II repressor

**Q.** And the CRP levels (CRP; 80 mg/day)?
**A.** decrease in CRP levels

**Q.** What about the “effect on biological markers of inflammation” value (CRP; in vivo) of the same compound?
**A.** dose-dependent

**Q.** Which “CD40 expression with co-treatment by IFN-γ and statin” value (CD40) does the source give for `CC[C@H](C)C(=O)O[C@H]1C[C@@H](C)C=C2C=C[C@H](C)[C@H](CC[C@@H]3C[C@@H](O)CC(=O)O3)[C@H]21` [lovastatin, Lovastatin] here?
**A.** decreased

**Q.** With L-mevalonate as the compound, how does the “reversal of statin effect on cytokine secretion” value (CD40 mediated pathways) read?
**A.** significantly reverses the process
